Results from US11846631B2, “Methods for determining drug effects on a mature cardiomyocyte” (ORGANOS, INC., priority 2018, dated 2023).

Columns and labels:
the other currents = test: Inversion of voltage and calcium traces measured in hiPSC-CMs in a cardiac MPS (channel block identification); type: cell-based, human; conditions: cisapride 10 nM; measured MPS data of hiPSC-CMs (FIG. 5)
From the text: [formula] […] The Minimization Procedure

IKr = IKr (Homo sapiens, UniProt Q12809); conditions: from the literature; cited from earlier work
ICaL = ICaL (Homo sapiens, UniProt Q13936); conditions: from the literature; cited from earlier work
ICaL, sequence (Q13936 whole entry): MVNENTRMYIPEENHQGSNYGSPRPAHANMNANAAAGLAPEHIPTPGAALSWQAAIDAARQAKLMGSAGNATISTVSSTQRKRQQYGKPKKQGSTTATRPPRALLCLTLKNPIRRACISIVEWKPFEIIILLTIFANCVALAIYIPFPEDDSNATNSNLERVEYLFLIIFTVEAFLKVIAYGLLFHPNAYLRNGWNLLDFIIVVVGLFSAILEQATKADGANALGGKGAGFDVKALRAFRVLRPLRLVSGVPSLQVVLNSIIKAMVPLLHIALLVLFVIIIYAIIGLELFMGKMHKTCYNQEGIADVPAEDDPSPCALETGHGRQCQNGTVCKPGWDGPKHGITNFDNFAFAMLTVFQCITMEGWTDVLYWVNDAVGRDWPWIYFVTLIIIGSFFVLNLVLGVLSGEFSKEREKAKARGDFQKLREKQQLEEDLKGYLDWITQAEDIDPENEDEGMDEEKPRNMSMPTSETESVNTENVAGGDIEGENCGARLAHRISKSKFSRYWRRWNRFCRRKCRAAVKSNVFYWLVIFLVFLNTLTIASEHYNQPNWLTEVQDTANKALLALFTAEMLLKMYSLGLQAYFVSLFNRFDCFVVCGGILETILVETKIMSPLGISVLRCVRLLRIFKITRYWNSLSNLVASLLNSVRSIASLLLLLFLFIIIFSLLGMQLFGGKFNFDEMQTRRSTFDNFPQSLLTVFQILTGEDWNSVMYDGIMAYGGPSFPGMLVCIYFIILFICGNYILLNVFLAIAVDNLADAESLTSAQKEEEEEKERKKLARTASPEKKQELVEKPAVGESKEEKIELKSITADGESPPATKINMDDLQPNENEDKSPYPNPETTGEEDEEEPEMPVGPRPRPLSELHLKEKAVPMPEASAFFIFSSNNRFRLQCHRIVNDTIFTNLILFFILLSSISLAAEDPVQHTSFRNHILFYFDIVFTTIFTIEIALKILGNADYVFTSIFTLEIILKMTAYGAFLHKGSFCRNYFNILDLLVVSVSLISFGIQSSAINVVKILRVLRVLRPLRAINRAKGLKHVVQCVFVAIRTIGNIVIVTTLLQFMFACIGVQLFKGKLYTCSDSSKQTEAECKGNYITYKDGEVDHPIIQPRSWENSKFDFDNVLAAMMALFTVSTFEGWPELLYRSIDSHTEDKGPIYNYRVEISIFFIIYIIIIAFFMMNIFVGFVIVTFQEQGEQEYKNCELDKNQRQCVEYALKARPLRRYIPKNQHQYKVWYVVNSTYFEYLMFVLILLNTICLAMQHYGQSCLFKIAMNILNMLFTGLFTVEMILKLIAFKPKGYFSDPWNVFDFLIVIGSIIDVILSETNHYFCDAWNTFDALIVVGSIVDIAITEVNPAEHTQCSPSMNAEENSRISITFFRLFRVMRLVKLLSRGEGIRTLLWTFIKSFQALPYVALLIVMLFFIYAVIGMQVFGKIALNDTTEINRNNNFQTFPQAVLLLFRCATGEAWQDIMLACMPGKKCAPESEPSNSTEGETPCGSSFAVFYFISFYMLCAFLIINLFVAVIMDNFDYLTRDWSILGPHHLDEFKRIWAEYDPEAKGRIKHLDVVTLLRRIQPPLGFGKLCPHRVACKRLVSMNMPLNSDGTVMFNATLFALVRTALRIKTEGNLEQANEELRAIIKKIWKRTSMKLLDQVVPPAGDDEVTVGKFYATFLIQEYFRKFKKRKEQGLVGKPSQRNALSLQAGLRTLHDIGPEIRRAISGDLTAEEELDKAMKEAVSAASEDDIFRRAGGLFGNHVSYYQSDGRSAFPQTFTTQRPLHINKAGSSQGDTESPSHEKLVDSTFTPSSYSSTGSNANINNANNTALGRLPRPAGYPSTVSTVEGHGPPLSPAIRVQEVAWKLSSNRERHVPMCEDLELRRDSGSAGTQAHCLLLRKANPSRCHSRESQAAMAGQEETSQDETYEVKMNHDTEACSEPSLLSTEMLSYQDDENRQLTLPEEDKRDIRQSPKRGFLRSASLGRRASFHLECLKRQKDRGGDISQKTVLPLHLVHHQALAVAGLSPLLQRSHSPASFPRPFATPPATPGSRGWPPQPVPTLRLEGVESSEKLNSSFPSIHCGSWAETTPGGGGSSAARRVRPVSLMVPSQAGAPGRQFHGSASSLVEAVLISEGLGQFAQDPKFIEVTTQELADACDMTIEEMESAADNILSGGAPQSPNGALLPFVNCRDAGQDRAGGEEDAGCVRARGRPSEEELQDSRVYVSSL
ICaL, sequence (Q08289 whole entry partner): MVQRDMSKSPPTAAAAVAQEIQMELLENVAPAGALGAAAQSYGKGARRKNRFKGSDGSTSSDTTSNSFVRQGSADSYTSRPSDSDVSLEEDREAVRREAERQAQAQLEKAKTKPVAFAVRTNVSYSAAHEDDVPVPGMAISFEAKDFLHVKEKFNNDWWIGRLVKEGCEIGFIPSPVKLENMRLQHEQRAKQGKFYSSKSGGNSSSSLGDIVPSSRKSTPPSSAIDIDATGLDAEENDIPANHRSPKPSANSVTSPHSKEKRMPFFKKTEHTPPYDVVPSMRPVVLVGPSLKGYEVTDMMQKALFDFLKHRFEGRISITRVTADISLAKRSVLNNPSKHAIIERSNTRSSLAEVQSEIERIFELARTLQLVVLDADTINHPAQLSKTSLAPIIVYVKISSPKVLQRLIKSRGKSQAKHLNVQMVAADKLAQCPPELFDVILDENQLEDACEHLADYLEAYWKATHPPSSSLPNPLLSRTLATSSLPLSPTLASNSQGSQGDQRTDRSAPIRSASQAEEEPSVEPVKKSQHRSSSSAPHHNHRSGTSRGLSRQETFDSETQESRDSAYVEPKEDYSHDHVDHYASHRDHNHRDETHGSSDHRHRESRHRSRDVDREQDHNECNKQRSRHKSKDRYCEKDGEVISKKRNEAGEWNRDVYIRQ
ICaL, sequence (P54289 25-946 partner limits assumed): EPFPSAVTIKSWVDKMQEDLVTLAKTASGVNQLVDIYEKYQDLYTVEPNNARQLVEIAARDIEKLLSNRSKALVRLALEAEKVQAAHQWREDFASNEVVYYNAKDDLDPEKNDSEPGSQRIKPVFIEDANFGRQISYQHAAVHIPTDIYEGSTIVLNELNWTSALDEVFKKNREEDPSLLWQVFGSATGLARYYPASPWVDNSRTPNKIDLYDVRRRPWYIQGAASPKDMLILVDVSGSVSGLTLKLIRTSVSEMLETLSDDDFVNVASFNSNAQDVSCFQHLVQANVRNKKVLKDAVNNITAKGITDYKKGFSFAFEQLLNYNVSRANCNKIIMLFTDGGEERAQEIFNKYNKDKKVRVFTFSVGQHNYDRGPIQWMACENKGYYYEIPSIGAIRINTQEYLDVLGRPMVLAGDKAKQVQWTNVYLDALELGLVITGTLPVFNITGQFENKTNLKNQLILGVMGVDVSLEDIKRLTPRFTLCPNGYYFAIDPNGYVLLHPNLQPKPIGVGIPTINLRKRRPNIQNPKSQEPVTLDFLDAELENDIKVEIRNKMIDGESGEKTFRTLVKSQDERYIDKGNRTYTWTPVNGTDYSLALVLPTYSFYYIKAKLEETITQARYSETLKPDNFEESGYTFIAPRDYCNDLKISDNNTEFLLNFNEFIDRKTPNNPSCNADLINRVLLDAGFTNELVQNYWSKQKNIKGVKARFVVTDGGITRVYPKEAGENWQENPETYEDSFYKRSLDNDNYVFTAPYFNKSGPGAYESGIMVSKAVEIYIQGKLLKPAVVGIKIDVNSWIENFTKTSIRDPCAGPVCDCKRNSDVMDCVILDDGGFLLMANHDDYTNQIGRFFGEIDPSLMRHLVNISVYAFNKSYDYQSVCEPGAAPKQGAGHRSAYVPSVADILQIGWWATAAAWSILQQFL
ICaL, sequence (P54289 947-1103 partner limits assumed): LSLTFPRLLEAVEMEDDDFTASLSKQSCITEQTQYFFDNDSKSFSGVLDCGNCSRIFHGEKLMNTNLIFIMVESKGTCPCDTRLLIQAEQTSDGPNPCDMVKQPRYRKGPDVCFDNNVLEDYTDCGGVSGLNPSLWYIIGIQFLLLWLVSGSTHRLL

IKr, sequence (Q12809 whole entry): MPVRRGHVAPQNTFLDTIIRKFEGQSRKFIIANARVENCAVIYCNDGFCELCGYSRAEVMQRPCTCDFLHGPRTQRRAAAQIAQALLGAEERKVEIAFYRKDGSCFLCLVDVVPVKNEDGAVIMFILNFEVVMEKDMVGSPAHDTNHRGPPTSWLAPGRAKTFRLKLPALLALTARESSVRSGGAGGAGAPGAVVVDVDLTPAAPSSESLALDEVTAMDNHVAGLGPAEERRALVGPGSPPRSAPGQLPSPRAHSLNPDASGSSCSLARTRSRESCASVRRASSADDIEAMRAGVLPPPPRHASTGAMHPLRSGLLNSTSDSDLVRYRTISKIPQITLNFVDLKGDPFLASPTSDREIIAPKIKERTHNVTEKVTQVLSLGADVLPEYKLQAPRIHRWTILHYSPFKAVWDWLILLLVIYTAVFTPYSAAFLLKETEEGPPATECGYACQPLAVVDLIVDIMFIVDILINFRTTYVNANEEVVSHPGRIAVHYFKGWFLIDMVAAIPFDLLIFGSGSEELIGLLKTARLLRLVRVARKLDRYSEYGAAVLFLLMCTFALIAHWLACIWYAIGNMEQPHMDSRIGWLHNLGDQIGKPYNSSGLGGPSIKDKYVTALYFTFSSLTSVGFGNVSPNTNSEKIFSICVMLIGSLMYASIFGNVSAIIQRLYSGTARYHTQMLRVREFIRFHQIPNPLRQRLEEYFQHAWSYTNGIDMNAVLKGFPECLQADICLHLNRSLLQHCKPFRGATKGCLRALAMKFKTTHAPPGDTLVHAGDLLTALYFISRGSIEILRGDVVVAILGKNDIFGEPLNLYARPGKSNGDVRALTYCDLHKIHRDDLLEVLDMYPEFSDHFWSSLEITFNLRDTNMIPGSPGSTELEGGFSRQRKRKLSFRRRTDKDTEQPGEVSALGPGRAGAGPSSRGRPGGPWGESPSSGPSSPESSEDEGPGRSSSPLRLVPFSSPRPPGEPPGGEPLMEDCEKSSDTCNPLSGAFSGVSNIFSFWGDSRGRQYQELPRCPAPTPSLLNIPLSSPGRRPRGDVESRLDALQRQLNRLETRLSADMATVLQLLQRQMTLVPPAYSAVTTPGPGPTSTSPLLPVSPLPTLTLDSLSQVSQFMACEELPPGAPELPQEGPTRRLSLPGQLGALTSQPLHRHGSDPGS

| Compound | Effect on the other currents, full inversion procedure (the other currents) | Known effect on IKr (IKr) | Known effect on ICaL (ICaL) |
| --- | --- | --- | --- |
| COc1cc(N)c(Cl)cc1C(=O)NC1CCN(CCCOc2ccc(F)cc2)CC1OC (stereo not drawn) [cisapride] | nearly unaffected | blocks | – |
| COc1ccc(CCN(C)CCCC(C#N)(c2ccc(OC)c(OC)c2)C(C)C)cc1OC (stereo not drawn) [verapamil] | – | – | blocks |
